Values after ≈ are worked out from the molar mass of the structure shown.
Legend:
Test in all cases: MIC assay, VISA and VRSA panel
Type in all cases: cell-based, Staphylococcus aureus
NRS52 = system: NRS52
Description: (§1) The antibacterial activity of the compounds was tested against a panel of bacteria, including Gram-positive bacteria (S. aureus ATCC29213, S. aureus USA300, S. aureus LIM-2, NR-45881, S. aureus HIP13419, NR-46413, E. faecium E155, E. faecium E7314, E. faecium E980, E. faecalis E1246, E. faecalis E7406 and S. pneumonia 153). The antibacterial activity of the compounds was further tested against S. aureus NY-155, NR-46236, S. aureus HIP12864, NR-46074, S. aureus 880 (BR-VRSA), NR-49120, E. faecalis E1246, E. faecalis E7604, as well as some Gram-negative bacteria (Escherichia coli and Klebsiella pneumoniae). Minimum inhibitory concentrations (MICs) in μg/mL were performed according to the CLSI guidelines. From glycerol stocks, bacterial strains were cultured on blood agar plates and incubated at 37° C. for 18 h. A single colony was transferred to tryptic soy broth (TSB) with 0.002% polysorbate 80 (p80). For the Enterococcus, VISA and VRSA strains, the cultures were grown at 37° C. until the optical density of the suspension reached a level equivalent to the 0.5 McFarland standard. The bacterial suspensions were diluted in TSB with 0.002% p80 to reach a bacterial cell density of 10^6 CFU/mL. In case of the other (vancomycin-sensitive) S. aureus strains, the direct colony suspension method was used. For these strains, after transfer of the colonies to TSB with 0.002% p80, they were immediately diluted to 10^6 CFU/mL, instead of incubated prior to this dilution. In the case of S. pneumonia, direct colony suspension was used by immediately suspending multiple colonies from fresh blood agar plates in TSB+0.002% p80 to an OD600 of 0.5 and subsequent dilution to 10^6 CFU mL^−1 in TSB+0.002% p80+5% lysed horse blood. Antibiotic dilutions for this strains were also made in TSB+0.002% p80+5% lysed horse blood. Both agar and microplates containing S. pneumonia were incubated at 37° C. with 5% CO2 for 24 h with constant shaking (600 rpm). […] The cultures were grown to exponential phase (OD600=0.5) at 37° C. […] In polypropylene 96-well microtiter plates, test compounds were added in biological triplicates and serial diluted 2-fold by transfer and mixing from one well to the next to achieve a final volume of 50 μL per well. An equal volume of bacterial suspension (10^6 CFU mL^−1) was added to the wells. The plates were sealed with breathable membranes and incubated at 37° C. for 24 h with constant shaking (600 rpm). In polypropylene microtiter plates, 100 μL of the test compounds was added to the first row in biological triplicates, and 50 μL of media was added to the other wells. The compounds were subjected to serial dilution by transfer and mixing of 50 μL from one well to the next. Subsequently, 50 μL of bacterial suspension (10^6 CFU/mL) was added to the wells. The plates were sealed with breathable membranes and incubated at 37° C. for 24 h with constant shaking (600 rpm). Positive growth control consisted of wells with bacterial suspension and without antibiotic. Negative growth control consisted of solely media without bacterial suspension or antibiotic. The MICs were determined from the median of a minimum of triplicates.

VRS4 = system: VRS4
Description: as §1

VRS8 = system: VRS8
Description: as §1

VRS7 = system: VRS7
Description: as §1

NRS51 = system: NRS51
Description: as §1

VRS2 = system: VRS2
Description: as §1

NRS19 = system: NRS19
Description: as §1

NRS17 = system: NRS17
Description: as §1

NRS18 = system: NRS18
Description: as §1

VRS3a = system: VRS3a
Description: as §1

VRS11a = system: VRS11a
Description: as §1

VRS11b = system: VRS11b
Description: as §1

VRS1 = system: VRS1
Description: as §1

VRS5 = system: VRS5
Description: as §1

Compound | MIC (NRS52; strain NRS52) [µg/mL] | MIC (VRS4; strain VRS4) [µg/mL] | MIC (VRS8; strain VRS8) [µg/mL] | MIC (VRS7; strain VRS7) [µg/mL] | MIC (NRS51; strain NRS51) [µg/mL] | MIC (VRS2; strain VRS2) [µg/mL] | MIC (NRS52; Staphylococcus aureus, NRS52) [µg/mL] | MIC (VRS4; Staphylococcus aureus) [µg/mL] | MIC (VRS8; Staphylococcus aureus) [µg/mL] | MIC (VRS7; Staphylococcus aureus) [µg/mL] | MIC (NRS51; Staphylococcus aureus, NRS51) [µg/mL] | MIC (VRS2; Staphylococcus aureus) [µg/mL] | MIC (NRS19; Staphylococcus aureus, NRS19) [µg/mL] | MIC (NRS17; Staphylococcus aureus, NRS17) [µg/mL] | MIC (NRS18; Staphylococcus aureus, NRS18) [µg/mL] | MIC (VRS3a; Staphylococcus aureus) [µg/mL] | MIC (VRS11a; Staphylococcus aureus) [µg/mL] | MIC (VRS11b; Staphylococcus aureus) [µg/mL] | MIC (VRS1; Staphylococcus aureus) [µg/mL] | MIC (VRS5; Staphylococcus aureus) [µg/mL] | further results
CCCCCCCNC(N)=Nc1ccc(CN[C@@]2(C)C[C@H](O[C@H]3[C@H](Oc4c5cc6cc4Oc4ccc(cc4Cl)[C@@H](O)[C@@H](NC(=O)[C@@H](CC(C)C)NC)C(=O)N[C@@H](CC(N)=O)C(=O)N[C@H]6C(=O)N[C@H]4C(=O)N[C@H](C(=O)N[C@H](C(=O)O)c6cc(O)cc(O)c6-c6cc4ccc6O)[C@H](O)c4ccc(c(Cl)c4)O5)O[C@H](CO)[C@@H](O)[C@@H]3O)O[C@@H](C)[C@H]2O)cc1 [Compound 5] | 0.031 (≈ 0.0183 µM) | 8 (≈ 4.72 µM) | 16 (≈ 9.44 µM) | 4 (≈ 2.36 µM) | 0.031 (≈ 0.0183 µM) | 0.25 (≈ 0.148 µM) |  |  |  |  |  |  |  |  |  |  |  |  |  |  | MIC (NRS19; strain NRS19): 0.063 µg/mL (≈ 0.0372 µM); MIC (NRS17; strain NRS17): 0.25 µg/mL (≈ 0.148 µM); MIC (NRS18; strain NRS18): 0.125 µg/mL (≈ 0.0738 µM); MIC (VRS3a; strain VRS3a): 0.25 µg/mL (≈ 0.148 µM); MIC (VRS11a; strain VRS11a): 16 µg/mL (≈ 9.44 µM); MIC (VRS11b; strain VRS11b): 16 µg/mL (≈ 9.44 µM); MIC (VRS1; strain VRS1): 16 µg/mL (≈ 9.44 µM); MIC (VRS5; strain VRS5): 4 µg/mL (≈ 2.36 µM)
CCCCCCN(CCCCCC)C(N)=Nc1ccc(CN[C@@]2(C)C[C@H](O[C@H]3[C@H](Oc4c5cc6cc4Oc4ccc(cc4Cl)[C@@H](O)[C@@H](NC(=O)[C@@H](CC(C)C)NC)C(=O)N[C@@H](CC(N)=O)C(=O)N[C@H]6C(=O)N[C@H]4C(=O)N[C@H](C(=O)N[C@H](C(=O)O)c6cc(O)cc(O)c6-c6cc4ccc6O)[C@H](O)c4ccc(c(Cl)c4)O5)O[C@H](CO)[C@@H](O)[C@@H]3O)O[C@@H](C)[C@H]2O)cc1 [Compound 12] | 0.031 (≈ 0.0176 µM) | 2 (≈ 1.13 µM) | 4 (≈ 2.27 µM) | 2 (≈ 1.13 µM) | 0.125 (≈ 0.0708 µM) | <0.016 |  |  |  |  |  |  |  |  |  |  |  |  |  |  | MIC (NRS19; strain NRS19): 0.25 µg/mL (≈ 0.142 µM); MIC (NRS17; strain NRS17): 0.5 µg/mL (≈ 0.283 µM); MIC (NRS18; strain NRS18): 0.25 µg/mL (≈ 0.142 µM); MIC (VRS3a; strain VRS3a): <0.016 µg/mL; MIC (VRS11a; strain VRS11a): 4 µg/mL (≈ 2.27 µM); MIC (VRS11b; strain VRS11b): 4 µg/mL (≈ 2.27 µM); MIC (VRS1; strain VRS1): 4 µg/mL (≈ 2.27 µM); MIC (VRS5; strain VRS5): 1 µg/mL (≈ 0.567 µM)
CN[C@H](CC(C)C)C(=O)N[C@H]1C(=O)N[C@@H](CC(N)=O)C(=O)N[C@H]2C(=O)N[C@H]3C(=O)N[C@H](C(=O)N[C@H](C(=O)O)c4cc(O)cc(O)c4-c4cc3ccc4O)[C@H](O[C@H]3C[C@](C)(N)[C@@H](O)[C@H](C)O3)c3ccc(c(Cl)c3)Oc3cc2cc(c3O[C@@H]2O[C@H](CO)[C@@H](O)[C@H](O)[C@H]2O[C@H]2C[C@](C)(NCc3ccc(-c4ccc(Cl)cc4)cc3)[C@@H](O)[C@H](C)O2)Oc2ccc(cc2Cl)[C@H]1O [Oritavancin] |  |  |  |  |  |  | 0.5 (≈ 0.279 µM) | 1 (≈ 0.558 µM) | 1 (≈ 0.558 µM) | 0.5 (≈ 0.279 µM) | 0.5 (≈ 0.279 µM) | 0.25 (≈ 0.139 µM) | 1 (≈ 0.558 µM) | 4 (≈ 2.23 µM) | 1 (≈ 0.558 µM) | 0.5 (≈ 0.279 µM) | 1 (≈ 0.558 µM) | 1 (≈ 0.558 µM) | 1 (≈ 0.558 µM) | 0.5 (≈ 0.279 µM) | 
CCCCCCCCCCNCCN[C@@]1(C)C[C@H](O[C@H]2[C@H](Oc3c4cc5cc3Oc3ccc(cc3Cl)[C@@H](O)[C@@H](NC(=O)[C@@H](CC(C)C)NC)C(=O)N[C@@H](CC(N)=O)C(=O)N[C@H]5C(=O)N[C@H]3C(=O)N[C@H](C(=O)N[C@H](C(=O)O)c5cc(O)c(CNCP(=O)(O)O)c(O)c5-c5cc3ccc5O)[C@H](O)c3ccc(c(Cl)c3)O4)O[C@H](CO)[C@@H](O)[C@@H]2O)O[C@@H](C)[C@H]1O [Telavancin, reference compound] |  |  |  |  |  |  | 0.25 (≈ 0.142 µM) | 4 (≈ 2.28 µM) | 16 (≈ 9.11 µM) | 4 (≈ 2.28 µM) | 0.125 (≈ 0.0712 µM) | 2 (≈ 1.14 µM) | 0.25 (≈ 0.142 µM) | 1 (≈ 0.57 µM) | 0.25 (≈ 0.142 µM) | 1 (≈ 0.57 µM) | 8 (≈ 4.56 µM) | 8 (≈ 4.56 µM) | 8 (≈ 4.56 µM) | 4 (≈ 2.28 µM) | 
CN[C@H](CC(C)C)C(=O)N[C@H]1C(=O)N[C@@H](CC(N)=O)C(=O)N[C@H]2C(=O)N[C@H]3C(=O)N[C@H](C(=O)N[C@H](C(=O)O)c4cc(O)cc(O)c4-c4cc3ccc4O)[C@H](O)c3ccc(c(Cl)c3)Oc3cc2cc(c3O[C@@H]2O[C@H](CO)[C@@H](O)[C@H](O)[C@H]2O[C@H]2C[C@](C)(N)[C@H](O)[C@H](C)O2)Oc2ccc(cc2Cl)[C@H]1O [Vancomycin, reference compound] |  |  |  |  |  |  | 4 (≈ 2.76 µM) | > 128 | > 128 | > 128 | 4 (≈ 2.76 µM) | 32 (≈ 22.1 µM) | 4 (≈ 2.76 µM) | 8 (≈ 5.52 µM) | 8 (≈ 5.52 µM) | 64 (≈ 44.2 µM) | > 128 | > 128 | > 128 | > 128 | 

From patent US20230174584A1, “Antibiotic Compounds” (priority 2019, published 2023)
